Broadly, the EC50 is the concentration needed to bring the measured effect to its halfway point.

Drawing on US7105679B2, “Heteroatom containing tetracyclic derivatives as selective estrogen receptor modulators” (priority 2001, dated 2006), this text covers IC50 and EC50 for 10 compounds.

Read-outs that look alike come from different tables or passages of the source.

The target in assay [1] is T1, human estrogen receptor α (Homo sapiens, UniProt P03372).
T1 construct: purchased Panvera
T1 sequence (P03372 1-595): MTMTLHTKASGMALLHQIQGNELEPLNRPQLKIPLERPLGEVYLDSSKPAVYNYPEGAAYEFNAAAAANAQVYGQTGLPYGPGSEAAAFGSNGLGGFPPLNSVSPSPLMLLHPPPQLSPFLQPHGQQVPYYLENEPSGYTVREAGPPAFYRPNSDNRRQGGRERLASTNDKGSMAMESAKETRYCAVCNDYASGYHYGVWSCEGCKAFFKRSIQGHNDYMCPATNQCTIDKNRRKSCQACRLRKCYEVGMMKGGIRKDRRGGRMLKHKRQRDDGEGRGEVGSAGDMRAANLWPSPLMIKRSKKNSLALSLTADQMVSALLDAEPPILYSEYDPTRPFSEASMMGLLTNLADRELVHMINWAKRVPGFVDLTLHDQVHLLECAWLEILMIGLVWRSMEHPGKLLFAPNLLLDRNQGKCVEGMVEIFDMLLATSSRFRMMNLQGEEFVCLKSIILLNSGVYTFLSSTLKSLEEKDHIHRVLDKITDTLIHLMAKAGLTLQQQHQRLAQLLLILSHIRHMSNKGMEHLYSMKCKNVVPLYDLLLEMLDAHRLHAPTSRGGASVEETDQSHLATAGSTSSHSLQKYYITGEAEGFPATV
As to the kind of experiment: Estrogen Receptor α Flash Plate Assay (binding of radiolabeled estrogen).

Another assay deals with T2, hER-β (Homo sapiens, UniProt Q92731).
T2 construct: purchased Panvera
T2 sequence (Q92731 whole entry): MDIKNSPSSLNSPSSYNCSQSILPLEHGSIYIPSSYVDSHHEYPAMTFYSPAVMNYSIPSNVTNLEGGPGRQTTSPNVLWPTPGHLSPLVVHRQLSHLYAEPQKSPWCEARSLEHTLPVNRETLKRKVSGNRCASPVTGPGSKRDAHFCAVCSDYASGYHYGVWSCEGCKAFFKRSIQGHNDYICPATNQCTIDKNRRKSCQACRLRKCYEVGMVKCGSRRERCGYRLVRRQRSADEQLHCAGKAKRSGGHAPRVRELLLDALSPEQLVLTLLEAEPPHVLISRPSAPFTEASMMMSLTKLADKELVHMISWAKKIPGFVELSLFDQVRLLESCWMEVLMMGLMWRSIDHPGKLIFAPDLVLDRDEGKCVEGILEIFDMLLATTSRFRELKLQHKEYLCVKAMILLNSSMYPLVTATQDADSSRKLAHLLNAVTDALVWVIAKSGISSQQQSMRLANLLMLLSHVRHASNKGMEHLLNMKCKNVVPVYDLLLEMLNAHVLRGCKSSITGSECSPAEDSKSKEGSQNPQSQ
As to the kind of experiment: Estrogen Receptor β Fluorescence Polarization Assay (binding of Fluormone ES2). An excerpt:
This assay monitors binding of a fluorescent analog of estrogen (Fluormone ES2, Panvera) to the estrogen receptor. Plates are read in a fluorometer that can be set to polarization mode. A decrease in […] relative to vehicle control is an indication of binding of a compound to the receptor.
It is crucial to avoid introduction of air bubbles into the reaction in each well of the 96 well plate throughout this procedure. (Bubbles on the surface of the reaction disrupt light flow, affecting the polarization reading.) However, it is also crucial to effectively mix the reaction components upon addition to the well.
On ice, a 2× standard mixture of Assay Buffer (Panvera), 10 nM DTT and 40 nM ES2 was prepared. On ice, a 2× reaction mixture of Assay Buffer (Panvera), and 20 nM hER-β (Panvera) and 40 nM ES2 was also prepared.
Dilutions of test compound were prepared in 30% (v/v) dimethyl sulfoxide/50 mM HEPES, pH 7.5. At this point, the dilutions were 40× the final required concentration.
The standard mixture at 50 μL was then added to each well. The reaction mixture at 48 μL was added to all wells. The compound dilution at 2.5 μL was added to the appropriate wells. The reaction mixtures were mixed using a manual pipette, a roll of aluminum foil adhesive cover was placed on the plate and the plate incubated at room temperature for 1 hour.
(Polarisation of emitted light reports the rotation of a fluorescent probe.)

The next assay has as its system MCF-7 cells. As to the kind of experiment: MCF-7 Cell Proliferation Assay (14C-thymidine, agonist and antagonist mode). It is filed as cell-based. Conditions: number in brackets = number of tests, NA = no detected activity at test concentration.
For another assay, the system named is Ishikawa cells. As to the kind of experiment: Alkaline Phosphatase Assay in Human Endometrial Ishikawa Cells (agonist and antagonist mode). It is filed as cell-based. Conditions: number in brackets = number of tests, NA = no detected activity at test concentration; for IC50: antagonist mode with 10 nM 17β-estradiol; for EC50: agonist mode.
Where [2] appears, read: Homo sapiens, MCF7, antagonist mode with 10 nM 17β-estradiol.
[3] abbreviates: flash plate binding, 0.5 nM radiolabeled estrogen, number in brackets = No. of determinations, NA = no detected activity at test concentration, read-out: Estrogen Receptor α in μM (No.).
[4] abbreviates: fluorescence polarization binding, Fluormone ES2, number in brackets = No. of determinations, NA = no detected activity at test concentration, read-out: Estrogen Receptor β in μM (No.).
Where [5] appears, read: Homo sapiens, MCF7, agonist mode.

`COc1ccc2c(c1)OC(c1ccc(OCCN3CCCCC3)cc1)C1=C2CCOc2cc(OC)ccc21` (single isomer, unassigned) [Compound 300, 5R*-(+)-1-{2-[4-(2,8-Dimethoxy-11,12-dihydro-5H-6,13-dioxa-benzo[3,4]cyclohepta[1,2-a]naphthalen-5-yl)-phenoxy]-ethyl}-piperidine]: the IC50 was 0.06 µM in assay [1], more than 10 µM on hER-β, 17400 nM in the assay on MCF-7 cells (setting [2]) and more than 100000 nM with Ishikawa cells (Homo sapiens).

For `COc1ccc2c(c1)OCCC1=C2C(c2ccc(OCCN3CCCCC3)cc2)Oc2cc(O)ccc21` (single isomer, unassigned) [Compound 301, 2-Methoxy-5R*-(+)-[4-(2-piperidin-1-yl-ethoxy)-phenyl]-11,12-dihydro-5H-6,13-dioxa-benzo[3,4]cyclohepta[1,2-a]naphthalen-8-ol], the IC50 in assay [1] (setting [3]) stood at 0.0041 µM; at hER-β (setting [4]), 0.189 µM.

As for `COc1ccc2c(c1)OC(c1ccc(OCCN3CCCCC3)cc1)C1=C2CCOc2cc(O)ccc21` (single isomer, unassigned) [Compound 302, 8-Methoxy-5R*-(+)-[4-(2-piperidin-1-yl-ethoxy)-phenyl]-11,12-dihydro-5H-6,13-dioxa-benzo[3,4]cyclohepta[1,2-a]naphthalen-2-ol], the IC50 was 0.0116 µM in assay [1] (setting [3]) and 0.355 µM on hER-β (setting [4]).

For the compound `Oc1ccc2c(c1)O[C@H](c1ccc(OCCN3CCCCC3)cc1)C1=C2COc2cc(O)ccc21` (stereo in doubt) [Compound 14, 5R*-(−)-[4-(2-Piperidin-1-yl-ethoxy)-phenyl]-5,11-dihydro-chromeno[4,3-c]chromene-2,8-diol], the IC50 was 0.0074 µM in assay [1] (setting [3]), 0.15 µM at hER-β (setting [4]), 5600 nM in the assay with MCF-7 cells (antagonist mode with 10 nM 17β-estradiol) and 149 nM in the assay on Ishikawa cells. In addition, the EC50 with MCF-7 cells (agonist mode) and in the assay with Ishikawa cells was more than 10000 nM each time.

With `Oc1ccc2c(c1)OC(c1ccc(OCCN3CCCCC3)cc1)C1=C2COc2cc(O)ccc21` (stereo not drawn) [Compound 9, 5-[4-(2-Piperidin-1-yl-ethoxy)-phenyl]-5,11-dihydrochromeno[4,3-c]chromene-2,8-diol], the IC50 in assay [1] (setting [3]) is 0.0023 µM; on hER-β (setting [4]), 0.084 µM; in the assay on MCF-7 cells (setting [2]) it was 777 nM; in the assay with Ishikawa cells (Homo sapiens) it was 110 nM. The EC50 in the assay on MCF-7 cells (setting [5]) and in the assay with Ishikawa cells (Homo sapiens) was more than 10000 nM throughout.

Take `CCN(CC)CCOc1ccc(C2Oc3cc(O)ccc3C3=C2c2ccc(O)cc2OC3)cc1` (stereo not drawn) [Compound 19, 5-[4-(2-Diethylamino-ethoxy)-phenyl]-5,11-dihydrochromeno[4,3-c]chromene-2,8-diol]: the IC50 in assay [1] (setting [3]) is 0.0019 µM; at hER-β (setting [4]), 0.099 µM; in the assay on MCF-7 cells (setting [2]) it was 713 nM; in the assay with Ishikawa cells (Homo sapiens), 250 nM. Further, the EC50 with MCF-7 cells (setting [5]) and in the assay on Ishikawa cells (Homo sapiens) was more than 10000 nM throughout.

Regarding `CN(C)CCOc1ccc(C2Oc3cc(O)ccc3C3=C2c2ccc(O)cc2OC3)cc1` (stereo not drawn) [Compound 21, 5-[4-(2-Dimethylamino-ethoxy)-phenyl]-5,11-dihydrochromeno[4,3-c]chromene-2,8-diol], the IC50 came to 0.015 µM in assay [1] (setting [3]), 0.011 µM at hER-β (setting [4]), 970 nM with MCF-7 cells (setting [2]) and 830 nM in the assay on Ishikawa cells (Homo sapiens). The 50% effective concentration (EC50) in the assay with MCF-7 cells (setting [5]) and in the assay with Ishikawa cells (Homo sapiens) was more than 10000 nM each time.

Regarding `CN(C)c1ccc(C2Oc3cc(O)ccc3C3=C2c2ccc(O)cc2OC3)cc1` (stereo not drawn) [Compound 26, 5-[4-Dimethylamino-phenyl]-5,11-dihydro-chromeno[4,3-c]chromene-2,8-diol], the IC50 in assay [1] (setting [3]) was 0.014 µM; at hER-β (setting [4]) it was 0.02 µM; in the assay on MCF-7 cells (setting [2]) it was more than 10000 nM; in the assay with Ishikawa cells (Homo sapiens), 180 nM. Besides, the EC50 in the assay with MCF-7 cells (setting [5]) is 64.3 nM; in the assay with Ishikawa cells (Homo sapiens) it was more than 10000 nM.

On to `CC(C)(C)C(=O)Oc1ccc2c(c1)OC(c1ccc(OCCN3CCCCC3)cc1)C1=C2C(O)Oc2cc(OC(=O)C(C)(C)C)ccc21` (stereo not drawn) [Compound 28], for which the figures for the IC50 (in assay [1] (setting [3]); at hER-β (setting [4])) were 0.14 µM and 6.25 µM, respectively.

Turning to `CC1(c2ccc(OCCN3CCCCC3)cc2)Oc2cc(O)ccc2C2=C1c1ccc(O)cc1OC2` (stereo not drawn) [Compound 29], the IC50 in assay [1] (setting [3]) stood at 0.004 µM; on hER-β (setting [4]), 0.017 µM.
